Test results: PubChem BioAssay (NCI)
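Each compound was tested at five concentrations against cells in 96-well plates for 48 hours. TGI marks complete inhibition of growth.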

Key:
Experiment in all cases: growth of human tumour cells (NCI), 48 h
SW-620 colon = system: SW-620 colon
SNB-75 CNS = system: SNB-75 CNS
EKVX NSCLC = system: EKVX NSCLC
TK-10 renal = system: TK-10 renal
SK-MEL-5 melanoma = system: SK-MEL-5 melanoma
HOP-92 NSCLC = system: HOP-92 NSCLC
SK-MEL-2 melanoma = system: SK-MEL-2 melanoma
SR leukemia = system: SR leukemia
HS 578T breast = system: HS 578T breast
HT29 colon = system: HT29 colon
CAKI-1 renal = system: CAKI-1 renal
SN12C renal = system: SN12C renal
SK-MEL-28 melanoma = system: SK-MEL-28 melanoma
COLO 205 colon = system: COLO 205 colon
M14 melanoma = system: M14 melanoma
NCI-H23 lung = system: NCI-H23 lung
KM12 colon = system: KM12 colon
A498 renal = system: A498 renal
DU-145 prostate = system: DU-145 prostate
HCT-116 colon = system: HCT-116 colon
MDA-MB-435 = system: MDA-MB-435
OVCAR-8 ovarian = system: OVCAR-8 ovarian
HOP-62 NSCLC = system: HOP-62 NSCLC
RXF 393 renal = system: RXF 393 renal
OVCAR-5 ovarian = system: OVCAR-5 ovarian
U251 CNS = system: U251 CNS
BT-549 breast = system: BT-549 breast
RPMI-8226 leukemia = system: RPMI-8226 leukemia
HCC-2998 colon = system: HCC-2998 colon
NCI-H460 lung = system: NCI-H460 lung
CCRF-CEM leukemia = system: CCRF-CEM leukemia
ACHN renal = system: ACHN renal
MOLT-4 leukemia = system: MOLT-4 leukemia
OVCAR-4 ovarian = system: OVCAR-4 ovarian
SNB-19 CNS = system: SNB-19 CNS
MDA-N = system: MDA-N
MCF7 breast = system: MCF7 breast
UO-31 renal = system: UO-31 renal
UACC-257 melanoma = system: UACC-257 melanoma
HCT-15 colon = system: HCT-15 colon
T-47D breast = system: T-47D breast
A549 NSCLC = system: A549 NSCLC
NCI-H522 lung = system: NCI-H522 lung
SF-539 CNS = system: SF-539 CNS
IGROV1 ovarian = system: IGROV1 ovarian
PC-3 prostate = system: PC-3 prostate
SF-295 CNS = system: SF-295 CNS
NCI-H226 lung = system: NCI-H226 lung
HL-60(TB) leukemia = system: HL-60(TB) leukemia
MDA-MB-231 breast = system: MDA-MB-231 breast
UACC-62 melanoma = system: UACC-62 melanoma
OVCAR-3 ovarian = system: OVCAR-3 ovarian
NCI/ADR-RES ovarian = system: NCI/ADR-RES ovarian
LOX IMVI melanoma = system: LOX IMVI melanoma
786-0 renal = system: 786-0 renal
MALME-3M melanoma = system: MALME-3M melanoma
K-562 leukemia = system: K-562 leukemia
SK-OV-3 ovarian = system: SK-OV-3 ovarian
SF-268 CNS = system: SF-268 CNS

OCCCNCC(O)c1ccc(OCc2ccccc2)c(OCc2ccccc2)c1 (centres undefined)
TGI (SW-620 colon): 15.8 µM
TGI (SNB-75 CNS): 14.1 µM
TGI (EKVX NSCLC): 30.4 µM
TGI (TK-10 renal): 15.8 µM
TGI (SK-MEL-5 melanoma): 13.5 µM
TGI (HOP-92 NSCLC): 24.1 µM
TGI (SK-MEL-2 melanoma): 15.1 µM
TGI (SR leukemia): 28 µM
TGI (HS 578T breast): 35.6 µM
TGI (HT29 colon): 16 µM
TGI (CAKI-1 renal): 32.5 µM
TGI (SN12C renal): 29.7 µM
TGI (SK-MEL-28 melanoma): 20.4 µM
TGI (COLO 205 colon): 10.2 µM
TGI (M14 melanoma): 31.5 µM
TGI (NCI-H23 lung): 33.3 µM
TGI (KM12 colon): 26 µM
TGI (A498 renal): 25.8 µM
TGI (DU-145 prostate): 30.8 µM
TGI (HCT-116 colon): 18.3 µM
TGI (MDA-MB-435): 15.2 µM
TGI (OVCAR-8 ovarian): 26.6 µM
TGI (HOP-62 NSCLC): 28.8 µM
TGI (RXF 393 renal): 42.7 µM
TGI (OVCAR-5 ovarian): 29.5 µM
TGI (U251 CNS): 23.1 µM
TGI (BT-549 breast): 31.9 µM
TGI (RPMI-8226 leukemia): 19.9 µM
TGI (HCC-2998 colon): 10 µM
TGI (NCI-H460 lung): 15.8 µM
TGI (CCRF-CEM leukemia): 17.5 µM
TGI (ACHN renal): 23.8 µM
TGI (MOLT-4 leukemia): 19.2 µM
TGI (OVCAR-4 ovarian): 18.3 µM
TGI (SNB-19 CNS): 38.5 µM
TGI (MDA-N): 21.6 µM
TGI (MCF7 breast): 16 µM
TGI (UO-31 renal): 28.8 µM
TGI (UACC-257 melanoma): 25.6 µM
TGI (HCT-15 colon): 27.5 µM
TGI (T-47D breast): 34.4 µM
TGI (A549 NSCLC): 26.3 µM
TGI (NCI-H522 lung): 30 µM
TGI (SF-539 CNS): 27.2 µM
TGI (IGROV1 ovarian): 23.4 µM
TGI (PC-3 prostate): 25.4 µM
TGI (SF-295 CNS): 20.8 µM
TGI (NCI-H226 lung): 29.7 µM
TGI (HL-60(TB) leukemia): 21.4 µM
TGI (MDA-MB-231 breast): 28.7 µM
TGI (UACC-62 melanoma): 42.8 µM
TGI (OVCAR-3 ovarian): 30.4 µM
TGI (NCI/ADR-RES ovarian): 37.2 µM
TGI (LOX IMVI melanoma): 13.7 µM
TGI (786-0 renal): 14.3 µM
TGI (MALME-3M melanoma): 29.7 µM
TGI (K-562 leukemia): 33.5 µM
TGI (SK-OV-3 ovarian): 24.4 µM
TGI (SF-268 CNS): 30.9 µM
